Data published in ChEMBL document CHEMBL1201862, “PubChem BioAssay data set” (2004).
The source made the active and inactive calls.

Columns and labels:
[1] = target: Scavenger receptor class B member 1 (Mus musculus, UniProt Q61009); assay: mouse SR-BI DiI-HDL uptake blockers – ldlA[mSR-BI] cells, fluorescence, cherry pick, dose response (AID 493194); format: functional, cell-based;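 further: cellular uptake of fluorescent DiI-labeled HDL measured as cell fluorescence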
[2] = reduction of Shn3 3'UTR-driven luciferase in osteoblasts – cell-based, Clone20 osteoblasts, firefly luciferase, cherry-picked, dose response (AID 624132); format: functional;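 further: firefly luciferase luminescence from reporter carrying the Shn3 3'UTR in osteoblasts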
Streptokinase A = target: T1, Streptokinase A (Streptococcus pyogenes serotype M1, UniProt P10520); assay: viability-normalized secreted streptokinase activity reduction – plasminogen activation absorbance, OD405, dose response (AID 1914); format: functional, Streptococcus pyogenes M1 GAS;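 further: secreted streptokinase activity via plasminogen activation per viability signal from cell pellet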
T1 sequence (P10520 whole entry): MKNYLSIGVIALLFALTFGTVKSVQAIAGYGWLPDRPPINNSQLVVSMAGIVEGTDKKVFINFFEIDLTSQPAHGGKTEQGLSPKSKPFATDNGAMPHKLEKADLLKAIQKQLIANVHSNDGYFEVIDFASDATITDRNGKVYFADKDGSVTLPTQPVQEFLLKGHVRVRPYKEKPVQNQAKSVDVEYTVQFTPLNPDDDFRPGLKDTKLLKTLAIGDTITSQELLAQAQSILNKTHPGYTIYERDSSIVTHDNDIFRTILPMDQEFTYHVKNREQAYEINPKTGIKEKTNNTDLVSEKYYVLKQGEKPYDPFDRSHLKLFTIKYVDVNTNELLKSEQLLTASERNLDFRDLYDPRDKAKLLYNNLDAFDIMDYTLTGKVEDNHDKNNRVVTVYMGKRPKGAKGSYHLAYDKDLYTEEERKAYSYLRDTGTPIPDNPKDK

[3] = target: Heat shock protein HSP 90-alpha (Homo sapiens, UniProt P07900); format: functional, organism-based
[4] = target: T2, Sphingosine 1-phosphate receptor 4 (Homo sapiens, UniProt O95977); assay: Fluorescence dose response cell-based high throughput screening assay for antagonists of the Sphingosine 1-Phosphate Receptor 4 (S1P4). [Related pubchem assays: 1524 (Confirmation in triplicates.), 1510 (Primary screen.)]; format: functional
T2 sequence (O95977 whole entry): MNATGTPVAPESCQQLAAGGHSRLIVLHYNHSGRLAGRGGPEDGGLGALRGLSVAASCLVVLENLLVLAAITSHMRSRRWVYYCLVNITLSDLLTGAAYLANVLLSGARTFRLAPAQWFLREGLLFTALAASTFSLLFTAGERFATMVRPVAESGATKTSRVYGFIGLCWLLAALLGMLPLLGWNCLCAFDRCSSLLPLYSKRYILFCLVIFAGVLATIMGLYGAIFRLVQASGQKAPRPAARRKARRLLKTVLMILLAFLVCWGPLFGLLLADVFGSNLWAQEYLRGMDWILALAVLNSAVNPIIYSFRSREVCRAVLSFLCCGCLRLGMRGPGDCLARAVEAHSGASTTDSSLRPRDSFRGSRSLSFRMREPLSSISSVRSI

[5] = system: Streptococcus sp. 'group A'; assay: Streptococcus pyogenes SK(-)GAS viability under kanamycin – luminescence, BacTiterGlo, confirmation, counter-screen for streptokinase expression inhibitor project, dose response (AID 1900); format: functional, organism-based
Beta-galactosidase = Beta-galactosidase (Escherichia coli, UniProt Q8VNN2); assay: detection-enzyme interference by beta-gal modulators – biochemical, E. coli enzyme, set 3, artefact control for CCR6 antagonist project, dose response (AID 504712); format: functional
[6] = microbe, parasite or virus in culture; format: functional; settings: Mycobacterium tuberculosis
[7] = target: Sphingosine 1-phosphate receptor 1 (Homo sapiens, UniProt P21453); format: functional;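 further: Tango beta-arrestin reporter U2OS cells stimulated with S1P near its EC80; inhibitor potency meaning antagonism of receptor activation by the natural agonist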
Sphingosine 1-phosphate receptor 1, sequence (P21453 whole entry): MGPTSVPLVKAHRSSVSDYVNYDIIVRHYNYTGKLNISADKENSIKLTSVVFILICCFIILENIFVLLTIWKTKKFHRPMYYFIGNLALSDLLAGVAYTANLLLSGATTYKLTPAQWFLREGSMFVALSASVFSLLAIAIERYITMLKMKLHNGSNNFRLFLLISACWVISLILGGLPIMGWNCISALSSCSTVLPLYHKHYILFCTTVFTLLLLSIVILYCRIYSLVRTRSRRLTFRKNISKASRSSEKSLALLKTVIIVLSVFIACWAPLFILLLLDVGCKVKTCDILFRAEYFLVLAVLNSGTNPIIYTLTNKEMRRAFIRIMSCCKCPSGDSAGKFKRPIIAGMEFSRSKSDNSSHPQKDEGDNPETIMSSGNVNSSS

[8] = target: Neurotensin receptor type 1 (Homo sapiens, UniProt P30989); format: functional;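 further: Image-based confirmatory dose-response assay measuring agonist activity at NTR1; NTR1-expressing U2OS osteosarcoma cells imaged for beta-arrestin GFP spot formation; agonist potency where compounds increase beta-arrestin recruitment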
Neurotensin receptor type 1, sequence (P30989 whole entry): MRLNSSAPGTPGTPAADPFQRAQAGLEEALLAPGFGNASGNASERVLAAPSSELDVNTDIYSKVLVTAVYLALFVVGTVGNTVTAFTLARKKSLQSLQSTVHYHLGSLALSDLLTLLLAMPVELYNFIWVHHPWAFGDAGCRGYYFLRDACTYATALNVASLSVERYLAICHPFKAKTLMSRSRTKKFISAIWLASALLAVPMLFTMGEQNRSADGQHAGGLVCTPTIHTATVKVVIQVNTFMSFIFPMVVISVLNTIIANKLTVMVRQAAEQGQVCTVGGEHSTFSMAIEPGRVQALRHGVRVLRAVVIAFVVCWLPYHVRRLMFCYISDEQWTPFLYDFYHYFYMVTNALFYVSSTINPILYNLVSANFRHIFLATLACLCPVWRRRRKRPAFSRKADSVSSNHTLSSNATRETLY

[9] = loss of viability in HepG2 cells – cell-based, CellTiter-Glo, cherry-picked, cytotoxicity control for Shn3 inhibitor project, dose response (AID 624134); format: functional
[10] = non-specific 3'UTR reporter inhibition in Clone20-Shn3RL – cell-based, Renilla luciferase, cherry-picked, counter-screen for Shn3 inhibitor project, dose response (AID 624133); format: functional
[11] = target: T3, Heat shock factor protein 1 (Mus musculus, UniProt P38532); assay: decrease of HSF1-responsive luciferase luminescence – cell-based, NIH3T3, dose retest, confirmation (AID 2382); format: functional;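 further: NIH3T3 fibroblasts with HSF1-driven luciferase reporter stressed by proteasome inhibitor MG132; luminescence from HSF1-driven luciferase expression after 8 hours of MG132 stress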
T3 sequence (P38532 whole entry): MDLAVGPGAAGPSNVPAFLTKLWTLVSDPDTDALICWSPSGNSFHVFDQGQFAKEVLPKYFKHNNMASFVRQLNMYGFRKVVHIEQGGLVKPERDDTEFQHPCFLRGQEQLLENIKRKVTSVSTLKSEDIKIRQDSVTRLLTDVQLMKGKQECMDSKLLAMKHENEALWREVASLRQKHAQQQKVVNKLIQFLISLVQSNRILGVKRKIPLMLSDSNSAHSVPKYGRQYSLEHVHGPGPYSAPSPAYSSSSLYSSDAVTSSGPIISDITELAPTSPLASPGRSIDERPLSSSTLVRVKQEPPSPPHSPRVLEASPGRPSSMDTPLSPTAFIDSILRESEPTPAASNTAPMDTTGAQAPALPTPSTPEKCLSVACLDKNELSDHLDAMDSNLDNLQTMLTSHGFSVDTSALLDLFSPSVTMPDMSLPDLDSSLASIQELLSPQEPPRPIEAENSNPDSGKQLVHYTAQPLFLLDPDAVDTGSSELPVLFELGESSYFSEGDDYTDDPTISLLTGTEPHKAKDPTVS

[12] = target: T2, Sphingosine 1-phosphate receptor 4; assay: Late stage fluorescence dose response cell-based screening assay for antagonists of the Sphingosine 1-Phosphate Receptor 4 (S1P4). [Related pubchem assays: 1524 (Confirmation screen (S1P4 antagonists).), 1510 (Primary screen (S1P4 antagonists).), 1853 (Summary AID (S1P4 antagonists).), 1692 (Dose response screen (S1P4 antagonists).)]; format: functional
Streptococcus = assay: GAS UMAA2166 growth inhibition – luminescence, BacTiterGlo, counter-screen for streptokinase expression inhibitor project, dose response (AID 1915); format: functional, organism-based;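 further: potency for reduction of bacterial viability or growth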
[13] = target: Cyclin-dependent kinase 5/CDK5 activator 1 (Homo sapiens, UniProt Q00535); assay: blockade of human CDK5 activity – biochemical, cherry-picked samples, set 2, dose response (AID 504545)
Beta-lactamase [14] = target: T4, Beta-lactamase (Pseudomonas aeruginosa, UniProt Q79MP6); assay: inhibition of IMP-1 beta-lactamase activity – biochemical, epi-absorbance, selectivity assay for VIM-2 inhibitor project, dose response (AID 1920)
T4 sequence (Q79MP6 whole entry): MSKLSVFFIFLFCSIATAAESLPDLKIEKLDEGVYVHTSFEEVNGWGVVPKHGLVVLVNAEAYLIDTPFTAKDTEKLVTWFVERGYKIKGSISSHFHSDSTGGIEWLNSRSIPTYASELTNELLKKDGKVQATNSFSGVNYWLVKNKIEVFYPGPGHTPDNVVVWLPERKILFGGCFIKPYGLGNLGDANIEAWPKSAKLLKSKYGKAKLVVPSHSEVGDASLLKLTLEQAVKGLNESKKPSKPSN

Beta-lactamase [15] = target: T4, Beta-lactamase; assay: […] counterscreen for selective VIM-2 inhibitors: dose response biochemical high throughput screening assay to identify inhibitors of IMP-1 metallo-beta-lactamase.
Beta-lactamase [16] = target: Beta-lactamase (Salmonella choleraesuis (strain SC-B67), UniProt Q5J463); assay: Epi-absorbance-based counterscreen for selective VIM-2 inhibitors: dose response biochemical high throughput screening assay to identify inhibitors of TEM-1 serine-beta-lactamase.
Beta-lactamase (Salmonella choleraesuis (strain SC-B67), UniProt Q5J463), sequence (Q5J463 whole entry): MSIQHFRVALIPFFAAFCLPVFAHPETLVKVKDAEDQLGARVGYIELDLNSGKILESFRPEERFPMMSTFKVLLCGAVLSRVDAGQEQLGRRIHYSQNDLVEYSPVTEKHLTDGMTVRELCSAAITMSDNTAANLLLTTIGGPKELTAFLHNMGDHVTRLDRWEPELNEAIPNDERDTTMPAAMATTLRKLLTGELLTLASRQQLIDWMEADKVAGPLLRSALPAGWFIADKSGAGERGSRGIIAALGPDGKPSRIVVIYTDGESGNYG

[17] = target: Peroxisome proliferator-activated receptor gamma/Nuclear receptor corepressor 2 (Homo sapiens, UniProt P37231+Q9Y618); format: functional
[18] = target: T5, Histone-lysine N-methyltransferase NSD2 (Homo sapiens, UniProt O96028); format: biochemical
T5 sequence (O96028 whole entry): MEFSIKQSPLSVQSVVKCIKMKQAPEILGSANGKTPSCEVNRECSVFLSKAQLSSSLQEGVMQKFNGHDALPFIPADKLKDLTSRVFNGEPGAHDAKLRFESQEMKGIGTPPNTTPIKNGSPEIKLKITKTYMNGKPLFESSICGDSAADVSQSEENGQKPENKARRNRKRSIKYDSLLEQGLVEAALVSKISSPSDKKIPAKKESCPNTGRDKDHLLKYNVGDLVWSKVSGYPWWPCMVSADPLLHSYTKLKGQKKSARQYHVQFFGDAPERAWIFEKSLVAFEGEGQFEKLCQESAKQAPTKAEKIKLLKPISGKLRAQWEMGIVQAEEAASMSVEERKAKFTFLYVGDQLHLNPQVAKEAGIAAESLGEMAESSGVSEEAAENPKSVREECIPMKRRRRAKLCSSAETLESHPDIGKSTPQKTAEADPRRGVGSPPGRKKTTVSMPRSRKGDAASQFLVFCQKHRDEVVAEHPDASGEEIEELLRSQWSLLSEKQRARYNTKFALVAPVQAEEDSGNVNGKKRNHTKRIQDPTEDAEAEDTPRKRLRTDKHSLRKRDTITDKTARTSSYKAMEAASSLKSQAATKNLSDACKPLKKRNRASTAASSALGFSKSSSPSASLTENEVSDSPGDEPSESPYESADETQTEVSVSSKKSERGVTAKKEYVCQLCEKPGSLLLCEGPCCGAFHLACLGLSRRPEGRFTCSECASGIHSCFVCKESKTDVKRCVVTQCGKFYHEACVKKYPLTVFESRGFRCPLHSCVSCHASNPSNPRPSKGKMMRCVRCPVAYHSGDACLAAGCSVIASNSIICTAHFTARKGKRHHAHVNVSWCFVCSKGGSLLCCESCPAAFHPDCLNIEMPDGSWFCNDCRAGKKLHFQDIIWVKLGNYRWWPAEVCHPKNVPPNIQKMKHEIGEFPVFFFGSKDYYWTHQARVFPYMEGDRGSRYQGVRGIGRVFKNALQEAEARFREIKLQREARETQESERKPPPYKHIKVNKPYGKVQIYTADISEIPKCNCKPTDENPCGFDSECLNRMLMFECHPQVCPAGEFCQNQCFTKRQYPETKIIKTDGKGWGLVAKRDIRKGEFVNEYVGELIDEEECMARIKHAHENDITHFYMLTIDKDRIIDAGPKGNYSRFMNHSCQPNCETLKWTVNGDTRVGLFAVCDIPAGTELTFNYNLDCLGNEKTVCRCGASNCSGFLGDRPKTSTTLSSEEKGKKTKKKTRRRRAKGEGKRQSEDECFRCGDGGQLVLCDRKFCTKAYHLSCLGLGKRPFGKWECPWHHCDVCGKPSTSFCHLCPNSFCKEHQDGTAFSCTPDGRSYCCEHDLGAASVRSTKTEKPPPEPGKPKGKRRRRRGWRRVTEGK

[19] = target: Ras and Rab interactor 1/Tyrosine-protein kinase ABL1 (Homo sapiens, UniProt P00519+Q13671); format: functional;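 further: biochemical TR-FRET dose-response test measuring inhibition of binding between Rin1 and Abl proteins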
[20] = target: Photoreceptor-specific nuclear receptor (Homo sapiens, UniProt Q9Y5X4); format: functional;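 further: potency for compounds that break the NR2E3 corepressor complex and count as activators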
[21] = Luminescence Cell-Based Dose Retest to Confirm Inhibitors of Cancer Stem Cells. [Related pubchem assays (depositor defined):AID2717, AID2721]; format: functional; settings: Homo sapiens
[22] = viability of uninfected HEp-2 cells – cell-based, HTS, cytotoxicity control for RSV inhibitor project, dose response (AID 2410); format: functional; settings: human respiratory syncytial virus
Cytochrome P450 3A4 = Cytochrome P450 3A4 (Homo sapiens, UniProt P08684); settings: Potency;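 further: confirmatory qHTS run detecting inhibitors and substrates of CYP3A4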
Cytochrome P450 2C9 = Cytochrome P450 2C9 (Homo sapiens, UniProt P11712); settings: Potency
Cytochrome P450 2C9, sequence (P11712 whole entry): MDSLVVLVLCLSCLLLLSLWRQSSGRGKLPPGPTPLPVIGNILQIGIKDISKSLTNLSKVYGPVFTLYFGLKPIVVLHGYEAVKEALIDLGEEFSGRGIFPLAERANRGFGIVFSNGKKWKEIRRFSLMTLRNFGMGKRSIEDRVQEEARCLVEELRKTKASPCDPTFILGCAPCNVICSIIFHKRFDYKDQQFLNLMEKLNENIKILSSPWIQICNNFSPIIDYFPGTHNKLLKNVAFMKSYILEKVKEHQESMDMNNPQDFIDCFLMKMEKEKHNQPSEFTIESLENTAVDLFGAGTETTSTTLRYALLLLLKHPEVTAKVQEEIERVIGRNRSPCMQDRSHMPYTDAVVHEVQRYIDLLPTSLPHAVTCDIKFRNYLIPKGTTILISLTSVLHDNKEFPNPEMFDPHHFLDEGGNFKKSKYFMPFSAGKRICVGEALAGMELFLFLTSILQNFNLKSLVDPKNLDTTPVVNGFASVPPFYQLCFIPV

[23] = target: T6, Calpain-2 catalytic subunit (Sus scrofa, UniProt P43367); assay: m-calpain protease blockers, concentration series – biochemical, fluorogenic peptide substrate, dose response (AID 1420); format: functional
T6 sequence (P43367 whole entry): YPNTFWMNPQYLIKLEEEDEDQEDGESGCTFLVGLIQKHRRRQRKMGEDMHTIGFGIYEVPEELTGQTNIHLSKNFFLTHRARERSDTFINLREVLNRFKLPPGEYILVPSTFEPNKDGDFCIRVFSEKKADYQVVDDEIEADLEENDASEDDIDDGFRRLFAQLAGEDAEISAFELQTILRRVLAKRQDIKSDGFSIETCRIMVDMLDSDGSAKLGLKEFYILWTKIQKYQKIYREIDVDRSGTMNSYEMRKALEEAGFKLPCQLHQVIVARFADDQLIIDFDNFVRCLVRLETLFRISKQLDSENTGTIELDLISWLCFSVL

[24] = target: T7, Voltage-dependent T-type calcium channel subunit alpha-1H (Homo sapiens, UniProt O95180); format: functional
T7 sequence (O95180 whole entry): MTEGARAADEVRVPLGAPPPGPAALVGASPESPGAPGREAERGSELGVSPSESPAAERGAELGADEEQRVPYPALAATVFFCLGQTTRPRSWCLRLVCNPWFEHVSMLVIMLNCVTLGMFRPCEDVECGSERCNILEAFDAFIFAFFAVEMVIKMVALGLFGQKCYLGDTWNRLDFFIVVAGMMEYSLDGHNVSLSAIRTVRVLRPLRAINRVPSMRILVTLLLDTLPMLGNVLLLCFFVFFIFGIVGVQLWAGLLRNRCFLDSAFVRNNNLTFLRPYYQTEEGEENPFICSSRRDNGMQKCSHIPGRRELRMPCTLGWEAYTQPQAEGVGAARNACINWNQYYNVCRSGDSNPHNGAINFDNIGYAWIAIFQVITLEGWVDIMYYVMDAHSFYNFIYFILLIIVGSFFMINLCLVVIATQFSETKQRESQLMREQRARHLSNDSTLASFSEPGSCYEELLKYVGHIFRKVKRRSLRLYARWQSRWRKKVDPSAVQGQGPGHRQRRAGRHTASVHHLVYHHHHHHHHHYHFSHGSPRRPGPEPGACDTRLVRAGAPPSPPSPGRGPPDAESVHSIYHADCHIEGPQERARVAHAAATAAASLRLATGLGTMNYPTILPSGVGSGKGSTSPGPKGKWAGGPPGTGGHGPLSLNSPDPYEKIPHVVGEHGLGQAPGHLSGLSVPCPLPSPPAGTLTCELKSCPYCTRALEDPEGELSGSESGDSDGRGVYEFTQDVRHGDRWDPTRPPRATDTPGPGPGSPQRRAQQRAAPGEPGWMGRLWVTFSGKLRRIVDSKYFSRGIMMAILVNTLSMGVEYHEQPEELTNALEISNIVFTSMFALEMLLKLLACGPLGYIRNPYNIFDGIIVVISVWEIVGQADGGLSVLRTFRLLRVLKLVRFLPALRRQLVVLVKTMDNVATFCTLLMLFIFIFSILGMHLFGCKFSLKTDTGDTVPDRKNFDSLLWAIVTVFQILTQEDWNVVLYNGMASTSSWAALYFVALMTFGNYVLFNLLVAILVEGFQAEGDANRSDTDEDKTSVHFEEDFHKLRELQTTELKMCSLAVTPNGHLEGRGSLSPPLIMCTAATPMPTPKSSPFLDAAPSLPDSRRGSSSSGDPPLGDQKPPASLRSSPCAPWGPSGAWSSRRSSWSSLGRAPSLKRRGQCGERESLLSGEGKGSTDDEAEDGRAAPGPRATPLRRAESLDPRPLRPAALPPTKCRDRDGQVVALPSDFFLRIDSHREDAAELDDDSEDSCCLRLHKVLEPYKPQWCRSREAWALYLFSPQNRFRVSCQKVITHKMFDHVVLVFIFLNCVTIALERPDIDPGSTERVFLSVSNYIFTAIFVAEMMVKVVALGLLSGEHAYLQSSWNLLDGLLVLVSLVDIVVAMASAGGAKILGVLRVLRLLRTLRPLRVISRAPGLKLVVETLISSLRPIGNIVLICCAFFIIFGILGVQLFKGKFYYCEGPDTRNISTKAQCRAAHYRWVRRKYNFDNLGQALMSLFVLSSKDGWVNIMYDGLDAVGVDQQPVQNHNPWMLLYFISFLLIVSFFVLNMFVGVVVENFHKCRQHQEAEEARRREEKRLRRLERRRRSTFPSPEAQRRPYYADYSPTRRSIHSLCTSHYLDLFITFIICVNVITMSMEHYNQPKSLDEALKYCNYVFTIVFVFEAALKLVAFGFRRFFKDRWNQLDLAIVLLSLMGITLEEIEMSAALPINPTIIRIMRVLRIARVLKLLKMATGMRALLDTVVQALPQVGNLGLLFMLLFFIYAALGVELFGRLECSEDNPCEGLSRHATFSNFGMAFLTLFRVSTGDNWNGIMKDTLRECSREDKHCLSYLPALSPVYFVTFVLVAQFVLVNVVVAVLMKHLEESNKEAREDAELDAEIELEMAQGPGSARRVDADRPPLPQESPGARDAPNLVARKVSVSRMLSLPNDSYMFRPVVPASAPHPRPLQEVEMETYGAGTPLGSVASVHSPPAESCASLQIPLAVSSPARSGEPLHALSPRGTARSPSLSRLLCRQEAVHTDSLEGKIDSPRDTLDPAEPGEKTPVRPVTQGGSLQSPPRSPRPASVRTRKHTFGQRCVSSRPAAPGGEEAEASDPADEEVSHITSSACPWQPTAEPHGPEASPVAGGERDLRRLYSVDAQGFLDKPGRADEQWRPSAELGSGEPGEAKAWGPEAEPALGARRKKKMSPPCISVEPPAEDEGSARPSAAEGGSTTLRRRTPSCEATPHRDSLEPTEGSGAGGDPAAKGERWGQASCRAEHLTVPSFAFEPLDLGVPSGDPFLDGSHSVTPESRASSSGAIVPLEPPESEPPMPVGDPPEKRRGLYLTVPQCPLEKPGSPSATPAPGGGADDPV

[25] = target: T7, Voltage-dependent T-type calcium channel subunit alpha-1H; assay: Inhibitors of T-Type Calcium Channels. [Related pubchem assays (depositor defined):AID449739, AID463087, AID489005, AID493041, AID504579, AID504584, AID504619, AID504628]; format: functional

Scavenger receptor class B member 1, sequence (Q61009 whole entry): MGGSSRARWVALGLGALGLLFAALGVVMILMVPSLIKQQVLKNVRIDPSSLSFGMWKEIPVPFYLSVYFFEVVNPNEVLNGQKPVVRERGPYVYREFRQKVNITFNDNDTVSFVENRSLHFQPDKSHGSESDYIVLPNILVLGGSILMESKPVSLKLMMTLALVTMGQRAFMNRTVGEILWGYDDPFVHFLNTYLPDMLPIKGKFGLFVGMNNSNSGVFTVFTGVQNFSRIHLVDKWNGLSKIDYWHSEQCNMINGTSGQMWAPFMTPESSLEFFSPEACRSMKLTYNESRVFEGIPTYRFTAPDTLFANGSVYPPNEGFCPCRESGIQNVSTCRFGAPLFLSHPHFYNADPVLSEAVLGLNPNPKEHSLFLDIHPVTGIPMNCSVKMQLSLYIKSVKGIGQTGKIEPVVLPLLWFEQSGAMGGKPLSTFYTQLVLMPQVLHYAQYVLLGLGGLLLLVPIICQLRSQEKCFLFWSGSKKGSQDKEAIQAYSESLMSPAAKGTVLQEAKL

## CC(C)OCCCNC(=O)c1ccc(C2SCC(=O)N2Cc2ccco2)cc1 (stereo unspecified)
[1]
  AC50: 1 µM (active)

## CCOc1cc(/C=C\[N+](=O)[O-])ccc1OCC(=O)Nc1ccccc1C
[2]
  AC50: < 0.26 µM (active)
Streptokinase A
  EC50: 4.73 µM (active)
[3]
  AC50: 3.66 µM (active)
[4]
  IC50: 0.913 µM (active)
[5]
  EC50: 7.34 µM (active)
Beta-galactosidase
  IC50: > 66.6 µM (inactive)
[6]
  CC50: > 40 µM (active)
[7]
  IC50: 18.8 µM (not active)
[8]
  EC50: 9.86 µM (active)
[9]
  AC50: 22.5 µM (active)
[10]
  AC50: 4.63 µM (active)
[11]
  EC50: 5.09 µM (active)
[12]
  IC50: 1.8 µM (not active)
Streptococcus
  EC50: 12.3 µM (active)

## O=C1Nc2cc(C(=O)N3CCC(N4CCCCC4)CC3)ccc2S/C1=C\c1ccccc1
[13]
  AC50: 21.2 µM (active)
Beta-lactamase [14]
  IC50: > 59.6 µM (inactive)
Beta-lactamase [15]
  IC50: > 59.6 µM (inactive)
Beta-lactamase [16]
  IC50: > 59.6 µM (inactive)

## Oc1cc(OCc2ccccc2)ccn1
[17]
  IC50: 16.6 µM (not active)
[18]
  AC50: 11.5 µM (active)
[19]
  IC50: 0.0261 µM (active)
[20]
  IC50: > 39.8 µM (not active)

## COc1ccc(-n2sc3c(c2=S)-c2cc(OC)ccc2NC3(C)C)cc1
[1]
  AC50: 16.1 µM (active)
[21]
  AC50: 2.53 µM (active)
[22]
  CC50: 18.4 µM (active)

## COc1ccc(OC)c(-c2ccccc2/C=N/NS(=O)(=O)c2ccc(C)cc2)c1
Cytochrome P450 3A4
  AC50: 3.16 µM (inconclusive)
Cytochrome P450 2C9
  AC50: 7.94 µM (inconclusive)

## CC(C)C[C@H](NC(=O)c1[nH]cnc1C(=O)N[C@@H](C)c1ccccc1)C(=O)OCc1ccccc1
[23]
  IC50: 5.23 µM (not active)
Streptokinase A
  EC50: > 150 µM (inconclusive)
[5]
  EC50: 0.656 µM (active)
[8]
  EC50: 5.4 µM (active)
Streptococcus
  EC50: 40.7 µM (active)

## CC(C)(C)n1nnnc1CN1CCN(C(c2ccccc2)c2ccccc2)CC1
[24]
  EC50: 6.42 µM (active)
[25]
  EC50: 7.64 µM (active)

## C/C=C/OC(=O)NC(c1ccccc1)[C@@]1(C(=O)OCC)CCCC1=O (stereo partly specified)
Cytochrome P450 2C9
  AC50: 3.98 µM (inconclusive)
